Entries after “also recorded” stand apart in the source; their conditions may differ.

We go through five sequences from publication PMC9986244, “Connection between MHC class II binding and aggregation propensity: The antigenic peptide 10 of Paracoccidioides brasiliensis as a benchmark study” (Computational and Structural Biotechnology Journal, 2023).

Data set [1] can be described thus: Transmission electron microscopy (TEM) of aggregates. The format is physicochemical. Conditions: peptide in PBS, 18 h, 37 °C; negative staining 2 % uranyl acetate; 20 μM (Fig. 7 legend), 100 µM (method). The method, then: […] of each peptide suspension (100 µM) was absorbed onto 200-mesh carbon-coated copper grids (Pelco, Ref: 01800 F) for 5 min and then blotted to remove excess material. Negative staining was performed by adding […] of 2 % (w/v) uranyl acetate. Samples were dried on air for 3 min. The grids were imaged with a Jeol 1200 electron microscope (Jeol Ltd.) operating at a 60 kV acceleration voltage.

For data set [2] the following is noted: depends on peptide concentration, pH and temperature; cited from earlier work. The text has this: In addition to peptide binding affinity, other properties to evaluate are their solubility and aggregation propensity. […] Many proteins and peptides in solution can aggregate into amyloid fibrils (AF), a type of aggregate that can accumulate in organs and tissues causing diseases such as Parkinson’s and Alzheimer’s. […] Here, we describe an additional layer of information that could be used to predict good and poor epitope-binders to MHC-II, which is its aggregation propensity. According to the Aggregation hypothesis of antigen selection as enunciated by Forsdyke, [54], homoaggregation of antigen ...

The test system of data set [3] is Paracoccidioides brasiliensis. As to conditions: immunization, compared with full gp43; cited from earlier work. The text has this: (§1) In addition to peptide binding affinity, other properties to evaluate are their solubility and aggregation propensity. […] Many proteins and peptides in solution can aggregate into amyloid fibrils (AF), a type of aggregate that can accumulate in organs and tissues causing diseases such as Parkinson’s and Alzheimer’s. This is the case of P10 ([…]), ...

The subject of the next data set is MHC-II alleles. As to conditions: cited from earlier work.
Excerpt: as §1

For data set [4] the following is noted: previously shown; cited from earlier work. From the text: Since P10 aggregates into AF in vitro, we investigated whether the peptides probed with ProImmune REVEAL® binding assays were able to form amyloid aggregates as well. To address this question, we initially submitted the ten selected sequences of the P10 variants (V1, V3, V5, V6, V7, V10, V11, V14, V15 and V16) to Cordax, an amyloid structure predictor able to model a given structure into steric zippers common to amyloids. For most of these P10 variants, regardless of their SF, at least two types of consensus steric zippers encompassing the sequence ^7(H)TLAIR(Y)^13 were predicted. The exceptio ...

Data set [5] can be described thus: In vitro aggregation, Thioflavin-T (ThT) binding. Conditions: 20 μM peptide in PBS pH 7.4, 37 °C, 18 h; ThT 50 μM, excitation 450 nm, emission 485 nm; in words, Fig. 6. The format is physicochemical. The method, then:
(§2) For in-vitro aggregation assays, P10 and a total of ten selected P10 variants were purchased from Genscript with purity above 95 % and diluted in DMSO (Sigma-Aldrich code D8418) 100 % to a final concentration of 5 mM (stock solution) and kept at −20 °C for storage.
(§3) P10 and its variants stock solutions were diluted in PBS at 20 μM; pH 7.4 at 37 °C for 18 h under agitation. To measure light scattering (LS), samples were excited at 320 nm while emission was collected at 320 nm in the spectrofluorometer Jasco FP8200 (Jasco Corp., Tokyo, Japan). Aliquots of the aggregation suspension were diluted in the presence of Thioflavin-T (Sigma-Aldrich code T3516) (ThT; 50 μM and peptide 20 μM), a specific fluorescent probe for AF. ThT fluorescence emission was measured at 485 nm by exciting the samples at 450 nm. Congo red (Sigma-Aldrich code C6767) binding assays, another amyloid specific probe, were performed according to Palhano [47]. The samples (50 μL) were centrifuged at 17,000 X g for 30 min, and the pellet was incubated with 10 µM Congo red solution for 5 min. The absorbance was measured at 540 and 477 nm and the fraction of bound Congo red was determined by the following formula [mol of bound Congo red/mol of protein = OD540/25,295 – OD477/46,306].

Data set [6] can be described thus: In vitro aggregation, Congo red (CR) binding. The format is physicochemical. Conditions: 20 μM peptide in PBS pH 7.4, 37 °C, 18 h; pellet (17,000 X g, 30 min) with 10 µM Congo red 5 min, absorbance 540 and 477 nm; in words, Fig. 6. The method, then:
as §2, §3

Data set [7] can be described thus: In vitro aggregation, light scattering (LS). The format is physicochemical. Conditions: 20 μM peptide in PBS pH 7.4 from 5 mM DMSO stock, 37 °C, 18 h under agitation; excitation and emission 320 nm; in words, Fig. 6. The method, then: as §2, §3

In the case of QTYHAIHTLAIRYAN [Peptide V14], the “Morphology of aggregates by TEM” value in data set [1] is on record as “ribbon-like appearance”.

As to QTLIAIHTLAIRYAN [Peptide P10], the Aggregation in solution entry in data set [2] is recorded as “aggregate into insoluble AF; also recorded: more prominent at neutral pH than at acidic pH”. Moreover, the “Protection of mice against Pb infection” value in data set [3] is listed as “protecting mice against Pb infection as effectively as using the full gp43”. In addition, the “Binding to a set of MHC-II alleles” value with MHC-II alleles was “nanomolar”. In data set [4], the “Regions able to form steric zippers” value was “^2TLIAIH^7, ^3LIAIHT^8, ^4IAIHTL^9, ^7HTLAIR^12 and ^8TLAIRY^13”.

For the sequence QGLKAIHTLAIRYAN [Peptide V10], the “Thioflavin T (ThT) binding” value in data set [5] was “did not bind ThT”. Besides, the “Morphology of aggregates by TEM” value in data set [1] is “formed mature amyloid fibrils”. In data set [6], the “Congo red (CR) binding” value is given as “bind CR”.

Take QTLLDIHTLAIRYAN [Peptide V1]: the “Thioflavin T (ThT) binding” value in data set [5] is “behaved like P10”. Besides, in data set [1], the “Morphology of aggregates by TEM” value is recorded as “amyloid fibrils were observed”. Besides, the “Light scattering (LS)” value in data set [7] is recorded as “behaved like P10”. For the same sequence, the “Congo red (CR) binding” value in data set [6] is “behaved like P10”.

Turning to QTLTAIHTLAIRYAN [Peptide V6], the “Thioflavin T (ThT) binding” value in data set [5] is given as “did not bind ThT”. Further, in data set [1], the “Morphology of aggregates by TEM” value is “formed mature amyloid fibrils”. Also, in data set [6], the “Congo red (CR) binding” value was “bind CR”.
